# Measured values published in PMC9217999 (Targeted Oncology, 2022).
# Marks after values point to notes of the source that are not given here.
# Tests used:
# [1] = tested on: relapsed/refractory solid tumors with known/expected MAPK pathway involvement; experiment: Investigator-assessed anti-tumor activity in iMATRIX-cobi; format: in vivo, human
# [2] = Days 1−21 of each 28-day cycle; cited from earlier work
# [3] = tested on: xenograft models of pediatric solid tumors; settings: ref Roche data on file; cited from earlier work
# [4] = tested on: P-glycoprotein; settings: cited from earlier work
# [5] = adults, similar dose; cited from earlier work
# [6] = Dose escalation PN in NF1 (n = 12)
structure (smiles),measurement,setting,value
O=C(c1ccc(F)c(F)c1Nc1ccc(I)cc1F)N1CC(O)([C@@H]2CCCCN2)C1 [cobimetinib],Best overall response: CR,[1]; All LGG patients (n = 32),0 n (%)
same,Best overall response: Non-CR/Non-PD,[1]; All LGG patients (n = 32),1 (3) n (%)
same,Best overall response: Non-evaluable,[1]; All LGG patients (n = 32),1 (3) n (%)
same,Best overall response: Not available,[1]; All LGG patients (n = 32),2 (6) n (%)
same,Best overall response: ORR,[1]; All LGG patients (n = 32),3 (9) n (%)
same,Best overall response: PD,[1]; All LGG patients (n = 32),7 (22) n (%)
same,Best overall response: PR,[1]; All LGG patients (n = 32),3 (9) n (%)
same,Best overall response: SD,[1]; All LGG patients (n = 32),18 (56) n (%)
same,Best overall response: CR,[1]; Dose escalation LGG (n = 20),0 n (%)
same,Best overall response: Non-CR/Non-PD,[1]; Dose escalation LGG (n = 20),1 (5) n (%)
same,Best overall response: Non-evaluable,[1]; Dose escalation LGG (n = 20),0 n (%)
same,Best overall response: Not available,[1]; Dose escalation LGG (n = 20),2 (10) n (%)
same,Best overall response: ORR,[1]; Dose escalation LGG (n = 20),2 (10) n (%)
same,Best overall response: PD,[1]; Dose escalation LGG (n = 20),5 (25) n (%)
same,Best overall response: PR,[1]; Dose escalation LGG (n = 20),2 (10) n (%)
same,Best overall response: SD,[1]; Dose escalation LGG (n = 20),10 (50) n (%)
same,Best overall response: CR,[1]; [6],0 n (%)
same,Best overall response: Non-CR/Non-PD,[1]; [6],0 n (%)
same,Best overall response: Non-evaluable,[1]; [6],0 n (%)
same,Best overall response: Not available,[1]; [6],0 n (%)
same,Best overall response: ORR,[1]; [6],0 n (%)
same,Best overall response: PD,[1]; [6],0 n (%)
same,Best overall response: PR,[1]; [6],0 n (%)
same,Best overall response: SD,[1]; [6],12 (100) n (%)
same,Best overall response: CR,[1]; Expansion LGG (n = 12),0 n (%)
same,Best overall response: Minor response per RANO criteria,[1]; Expansion LGG (n = 12),1 (8)^a n (%)
same,Best overall response: Non-CR/Non-PD,[1]; Expansion LGG (n = 12),0 n (%)
same,Best overall response: Non-evaluable,[1]; Expansion LGG (n = 12),1 (8) n (%)
same,Best overall response: Not available,[1]; Expansion LGG (n = 12),0 n (%)
same,Best overall response: ORR,[1]; Expansion LGG (n = 12),1 (8) n (%)
same,Best overall response: PD,[1]; Expansion LGG (n = 12),2 (17) n (%)
same,Best overall response: PR,[1]; Expansion LGG (n = 12),1 (8) n (%)
same,Best overall response: SD,[1]; Expansion LGG (n = 12),8 (67) n (%)
same,Best overall response: CR,[1]; Overall population (n = 56),0 n (%)
same,Best overall response: Non-CR/Non-PD,[1]; Overall population (n = 56),1 (2) n (%)
same,Best overall response: Non-evaluable,[1]; Overall population (n = 56),2 (4) n (%)
same,Best overall response: Not available,[1]; Overall population (n = 56),4 (7) n (%)
same,Best overall response: ORR,[1]; Overall population (n = 56),3 (5) n (%)
same,Best overall response: PR,[1]; Overall population (n = 56),3 (5) n (%)
same,Best overall response: SD,[1]; Overall population (n = 56),33 (59) n (%)
same,Median DoR,[1]; in vivo,not reached
same,Median duration of stable disease,[1]; overall,11.0 months
same,Non-evaluable,[1]; overall,4%
same,Median OS,[1]; overall population,not reached
same,Overall response rate,"[1]; overall, 3/56, all partial responses in LGG",5.4%
same,Partial response (PR),"[1]; overall, 3/56 patients, all with LGG",5%
same,Stable disease,"[1]; overall, 33/56",59%
same,Recommended Phase II dose (RP2D) in adults,[2],60 mg/day
same,Activity in xenograft models,[3],activity observed
same,P-glycoprotein substrate,[4],substrate of P-glycoprotein
same,Cobimetinib AUC lower in healthy subjects versus cancer patients,[5],50%
